According to patent US9981944B2, “GDF-8 inhibitors” (Rigel Pharmaceuticals, Inc., priority 2015, dated 2018):

Experiments:
HIS-TGFβR2 WT = HIS-TGFβR2 WT (Homo sapiens (Human), UniProt P37173); assay: HTRF probe displacement assay, HIS-TGFβR2 WT; type: binding; conditions: 1 nM HIS-TGFβR2 WT, 1 hour at room temperature, read-out: TGFBR2WT IC50
Description: (§1) Compounds were dissolved at 10 mM in dimethylsulfoxide (DMSO) and evaluated at eleven concentrations. IC50 values were derived by non-linear regression analysis.

HIS-TGFβR1 T204D = HIS-TGFβR1 T204D (Homo sapiens (Human), UniProt P36897, T204D); assay: HTRF probe displacement assay, HIS-TGFβR1 T204D; type: binding; conditions: 1 nM HIS-TGFβR1 T204D, 1 hour at room temperature, read-out: TGFBR1T204D IC50
Description: as §1

Sequence of HIS-TGFβR1 T204D (P36897 34-503 T204D): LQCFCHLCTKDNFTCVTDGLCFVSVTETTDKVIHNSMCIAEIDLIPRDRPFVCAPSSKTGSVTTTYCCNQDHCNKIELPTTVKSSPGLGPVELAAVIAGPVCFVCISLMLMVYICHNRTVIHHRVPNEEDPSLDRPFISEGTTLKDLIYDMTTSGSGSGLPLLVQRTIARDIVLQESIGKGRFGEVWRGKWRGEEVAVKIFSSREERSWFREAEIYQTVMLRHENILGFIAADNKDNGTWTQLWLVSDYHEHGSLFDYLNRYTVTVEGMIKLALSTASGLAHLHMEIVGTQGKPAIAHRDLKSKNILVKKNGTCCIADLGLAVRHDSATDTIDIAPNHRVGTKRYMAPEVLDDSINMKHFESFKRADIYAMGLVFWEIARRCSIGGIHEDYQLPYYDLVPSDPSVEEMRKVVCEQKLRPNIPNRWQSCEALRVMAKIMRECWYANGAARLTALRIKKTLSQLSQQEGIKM
Sequence of HIS-TGFβR2 WT (P37173 23-567): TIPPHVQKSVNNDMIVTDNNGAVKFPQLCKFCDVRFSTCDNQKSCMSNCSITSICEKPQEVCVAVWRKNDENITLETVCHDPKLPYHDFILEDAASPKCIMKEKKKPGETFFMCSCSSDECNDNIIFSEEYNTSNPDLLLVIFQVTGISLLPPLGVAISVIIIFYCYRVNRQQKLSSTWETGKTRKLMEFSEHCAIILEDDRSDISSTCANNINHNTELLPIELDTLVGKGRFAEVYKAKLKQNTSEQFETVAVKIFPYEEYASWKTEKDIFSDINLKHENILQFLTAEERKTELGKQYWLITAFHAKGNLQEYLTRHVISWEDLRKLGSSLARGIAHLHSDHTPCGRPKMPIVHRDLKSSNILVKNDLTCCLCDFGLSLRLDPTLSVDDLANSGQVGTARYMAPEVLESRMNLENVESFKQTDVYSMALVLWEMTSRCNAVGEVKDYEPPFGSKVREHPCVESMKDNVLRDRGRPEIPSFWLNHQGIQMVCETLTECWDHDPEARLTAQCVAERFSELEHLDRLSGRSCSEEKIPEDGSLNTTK

SMILES	IC50 (HIS-TGFβR2 WT) [nM]	IC50 (HIS-TGFβR1 T204D) [nM]
CC(C)c1cccc(-c2ncccc2-c2ccc3ncc(C(N)=O)n3n2)n1 [Compound 64, 6-(6′-isopropyl-[2,2′-bipyridin]-3-yl)imidazo[1,2-b]pyridazine-3-carboxamide]	> 15000	563
Cc1nc(-c2ncccc2-c2ccc3ncc(C#N)n3n2)ccc1F [Compound 61, 6-(5′-fluoro-6′-methyl-[2,2′-bipyridin]-3-yl)imidazo[1,2-b]pyridazine-3-carbonitrile]	> 15000	32
COc1cccc(-c2ncccc2-c2ccc3ncc(C(N)=O)n3c2)n1 [Compound 33, 6-(6′-methoxy-[2,2′-bipyridin]-3-yl)imidazo[1,2-a]pyridine-3-carboxamide]	–	1
NC(=O)c1cnc2ccc(-c3cccnc3-c3cccc(C(F)F)n3)nn12 [Compound 52, 6-(6′-(difluoromethyl)-[2,2′-bipyridin]-3-yl)imidazo[1,2-b]pyridazine-3-carboxamide]	> 15000	30
Cc1cccc(-c2ncccc2-c2ccc3ncc(C(=O)NC4COC4)n3n2)n1 [Compound 74, 6-(6′-methyl-[2,2′-bipyridin]-3-yl)-N-(oxetan-3-yl)imidazo[1,2-b]pyridazine-3-carboxamide]	> 15000	108
N#Cc1cnc2ccc(-c3cccnc3-c3cccc(C(F)F)n3)cn12 [Compound 28, 6-(6′-(difluoromethyl)-[2,2′-bipyridin]-3-yl)imidazo[1,2-a]pyridine-3-carbonitrile]	> 15000	9
COc1cccc(-c2ncccc2-c2ccc3ncc(C#N)n3n2)n1 [Compound 50, 6-(6′-methoxy-[2,2′-bipyridin]-3-yl)imidazo[1,2-b]pyridazine-3-carbonitrile]	> 15000	43
Fc1ccc(-c2ncccc2-c2ccc3nccn3c2)nc1C(F)F [Compound 48, 6-(6′-(difluoromethyl)-5′-fluoro-[2,2′-bipyridin]-3-yl)imidazo[1,2-a]pyridine]	> 15000	26
NC(=O)c1cnc2ccc(-c3cccnc3-c3cccc(C(F)(F)F)n3)cn12 [Compound 18, 6-(6′-(trifluoromethyl)-[2,2′-bipyridin]-3-yl)imidazo[1,2-a]pyridine-3-carboxamide]	> 15000	1
CS(=O)(=O)Nc1cccc(-c2ncccc2-c2ccc3ncc(C#N)n3c2)n1 [Compound 44, N-(3′-(3-cyanoimidazo[1,2-a]pyridin-6-yl)-[2,2′-bipyridin]-6-yl)methanesulfonamide]	> 15000	1980
N#Cc1cnc2ccc(-c3cccnc3-c3cc(F)ccn3)cn12 [Compound 16, 6-(4′-fluoro-[2,2′-bipyridin]-3-yl)imidazo[1,2-a]pyridine-3-carbonitrile]	> 15000	207
NC(=O)c1cnc2ccc(-c3cccnc3-c3cc(F)ccn3)cn12 [Compound 22, 6-(4′-fluoro-[2,2′-bipyridin]-3-yl)imidazo[1,2-a]pyridine-3-carboxamide]	–	5
NC(=O)c1cnc2ccc(-c3cccnc3-c3ccccn3)cn12 [Compound 39, 6-([2,2′-bipyridin]-3-yl)imidazo[1,2-a]pyridine-3-carboxamide]	–	6
NC(=O)c1cnc2ccc(-c3cccnc3-c3ccc(F)cn3)nn12 [Compound 54, 6-(5′-fluoro-[2,2′-bipyridin]-3-yl)imidazo[1,2-b]pyridazine-3-carboxamide]	> 15000	254
CCc1cccc(-c2ncccc2-c2ccc3ncc(C#N)n3c2)n1 [Compound 30, 6-(6′-ethyl-[2,2′-bipyridin]-3-yl)imidazo[1,2-a]pyridine-3-carbonitrile]	> 15000	–
CC(C)c1cccc(-c2ncccc2-c2ccc3ncc(C#N)n3c2)n1 [Compound 31, 6-(6′-isopropyl-[2,2′-bipyridin]-3-yl)imidazo[1,2-a]pyridine-3-carbonitrile]	> 15000	307
NC(=O)c1cnc2ccc(-c3cccnc3-c3cccc(F)n3)cn12 [Compound 37, 6-(6′-fluoro-[2,2′-bipyridin]-3-yl)imidazo[1,2-a]pyridine-3-carboxamide]	–	4
CC(=O)Nc1cccc(-c2ncccc2-c2ccc3ncc(C#N)n3c2)n1 [Compound 45, N-(3′-(3-cyanoimidazo[1,2-a]pyridin-6-yl)-[2,2′-bipyridin]-6-yl)acetamide]	> 15000	907
Cc1cccc(-c2ncccc2-c2ccc3ncc(C(N)=O)n3n2)n1 [Compound 58, 6-(6′-methyl-[2,2′-bipyridin]-3-yl)imidazo[1,2-b]pyridazine-3-carboxamide]	> 15000	19
COc1cccc(-c2ncccc2-c2ccc3ncc(C(N)=O)n3n2)n1 [Compound 51, 6-(6′-methoxy-[2,2′-bipyridin]-3-yl)imidazo[1,2-b]pyridazine-3-carboxamide]	> 15000	21
NC(=O)c1cnc2ccc(-c3cccnc3-c3ccc(F)cn3)cn12 [Compound 21, 6-(5′-fluoro-[2,2′-bipyridin]-3-yl)imidazo[1,2-a]pyridine-3-carboxamide]	–	5
NC(=O)c1cnc2ccc(-c3cccnc3-c3ccc(F)c(C(F)F)n3)cn12 [Compound 24, 6-(6′-(difluoromethyl)-5′-fluoro-[2,2′-bipyridin]-3-yl)imidazo[1,2-a]pyridine-3-carboxamide]	> 15000	–
Cc1nc(-c2ncccc2-c2ccc3ncc(C(N)=O)n3c2)ccc1F [Compound 19, 6-(5′-fluoro-6′-methyl-[2,2′-bipyridin]-3-yl)imidazo[1,2-a]pyridine-3-carboxamide]	–	1

Further lines, results first:

IC50 (HIS-TGFβR2 WT) [nM]	IC50 (HIS-TGFβR1 T204D) [nM]	SMILES
> 15000	46	CCOC(=O)c1cnn2ccc(-c3cccnc3-c3cccc(C(F)(F)F)n3)nc12 [Compound 123, ethyl 5-(6′-(trifluoromethyl)-[2,2′-bipyridin]-3-yl)pyrazolo[1,5-a]pyrimidine-3-carboxylate]
> 15000	28	CCOC(=O)c1cnn2ccc(-c3cccnc3-c3cccc(C(F)F)n3)nc12 [Compound 134, ethyl 5-(6′-(difluoromethyl)-[2,2′-bipyridin]-3-yl)pyrazolo[1,5-a]pyrimidine-3-carboxylate]
> 15000	3	FC(F)c1cccc(-c2ncccc2-c2ccc3[nH]ncc3c2)n1 [Compound 115, 5-(6′-(difluoromethyl)-[2,2′-bipyridin]-3-yl)-1H-indazole]
> 15000	242	Cc1nc(-c2ncccc2-c2ccn3ncc(C#N)c3n2)ccc1F [Compound 122, 5-(5′-fluoro-6′-methyl-[2,2′-bipyridin]-3-yl)pyrazolo[1,5-a]pyrimidine-3-carbonitrile]
> 15000	36	Cc1nc(-c2ncccc2-c2ccn3ncc(C(=O)NC4CC4)c3n2)ccc1F [Compound 132, N-cyclopropyl-5-(5′-fluoro-6′-methyl-[2,2′-bipyridin]-3-yl)pyrazolo[1,5-a]pyrimidine-3-carboxamide]
> 15000	5	Cc1cccc(-c2nccc(N)c2-c2ccc3ncc(C(N)=O)n3c2)n1 [Compound 101, 6-(4-amino-6′-methyl-[2,2′-bipyridin]-3-yl)imidazo[1,2-a]pyridine-3-carboxamide]
> 15000	2	Cc1nc(-c2ncccc2-c2ccc3ncnc(N)c3c2)ccc1F [Compound 110]
> 15000	3	Nc1ncnc2ccc(-c3cccnc3-c3cccc(C(F)F)n3)nc12 [Compound 105, 6-(6′-(difluoromethyl)-[2,2′-bipyridin]-3-yl)pyrido[3,2-d]pyrimidin-4-amine]
> 15000	11100	CC(=O)Nc1ccnc(-c2cccc(C)n2)c1-c1ccc2ncc(C#N)n2c1 [Compound 100, N-(3-(3-cyanoimidazo[1,2-a]pyridin-6-yl)-6′-methyl-[2,2′-bipyridin]-4-yl)acetamide]
> 15000	15000	Cc1nc(-c2ncccc2-c2ccc3nc(C(N)=O)cn3c2)ccc1F [Compound 78, 6-(5′-fluoro-6′-methyl-[2,2′-bipyridin]-3-yl)imidazo[1,2-a]pyridine-2-carboxamide]
> 15000	2	Nc1ncnc2ccc(-c3cccnc3-c3cccc(C(F)F)n3)cc12 [Compound 109, 6-(6′-(difluoromethyl)-[2,2′-bipyridin]-3-yl)quinazolin-4-amine]
> 15000	33	Cc1cccc(-c2ncccc2-c2ccn3ncc(C(=O)NC4CC4)c3n2)n1 [Compound 128, N-cyclopropyl-5-(6′-methyl-[2,2′-bipyridin]-3-yl)pyrazolo[1,5-a]pyrimidine-3-carboxamide]
–	1	Cc1cccc(-c2ncc(F)cc2-c2ccc3ncc(C(N)=O)n3c2)n1 [Compound 82, 6-(5-fluoro-6′-methyl-[2,2′-bipyridin]-3-yl)imidazo[1,2-a]pyridine-3-carboxamide]
–	2	Cc1cccc(-c2ncc(N)cc2-c2ccc3ncc(C(N)=O)n3c2)n1 [Compound 98, 6-(5-amino-6′-methyl-[2,2′-bipyridin]-3-yl)imidazo[1,2-a]pyridine-3-carboxamide]
–	5	CC(=O)Nc1cnc(-c2cccc(C)n2)c(-c2ccc3ncc(C(N)=O)n3c2)c1 [Compound 97, 6-(5-acetamido-6′-methyl-[2,2′-bipyridin]-3-yl)imidazo[1,2-a]pyridine-3-carboxamide]
–	2	Cc1nc(-c2ncc(F)cc2-c2ccc3ncc(C(N)=O)n3c2)ccc1F [Compound 85, 6-(5,5′-difluoro-6′-methyl-[2,2′-bipyridin]-3-yl)imidazo[1,2-a]pyridine-3-carboxamide]
–	4	Cc1cccc(-c2ncc(N)cc2-c2ccc3ncc(C(=O)O)n3c2)n1 [Compound 99, 6-(5-amino-6′-methyl-[2,2′-bipyridin]-3-yl)imidazo[1,2-a]pyridine-3-carboxylic acid]
